Measured values reported in patent publication US8361970B2, “Growth factor binding molecules” (University of South Florida, priority 2000, dated 2013).
Several values for one entry are separate records, joined by “and”; a condition that tells them apart may be missing. Equal entries are not always repeated. Where two headings read alike, the source gives them in different places. Positions of bridges follow the written chain, without caps; N, C: chain ends. Non-standard residues stand in square brackets, D forms with d. d2Nal = N[C@H](Cc1ccc2ccccc2c1)C(=O)O; dAbu = CC[C@@H](N)C(=O)O

Key:
Assay type in all cases: cell-based
[1] = system: PDGF-stimulated PDGFR tyrosine phosphorylation; assay: Inhibition of PDGF-stimulated PDGFR tyrosine phosphorylation in NIH 3T3 cells (anti-phosphotyrosine Western blot); conditions: 5 min pretreatment, PDGF 10 ng/ml 10 min, read-out: (IC50) Inhibition PDGFR-Y-P
Experimental: Starved NIH 3T3 cells are pretreated with various growth factor binding agents (0-100 μM) for 5 min before stimulation with PDGF (10 ng/mL) for 10 min. The cells are then harvested and lysed, and the proteins from the lysates separated by SDS-PAGE and immunoblotted with an anti-phosphotyrosine antibody (4G10: Upstate Biotechnology, Lake Placid, N.Y.). The phosphotyrosine PDGF receptor bands are scanned, and the concentrations of growth factor binding molecules that inhibited the ability of PDGF to stimulate PDGFR tyrosine phosphorylation by 50% are determined.
(§1) Starved NIII 3T3 cells (PDGF-BB and PDGF-AA), NIH 3T3 cells overexpressing either EGFR (EGF) or Flk-1 (VEGF) are pre-treated with the indicated concentrations of GFB-111 for 5 minutes before 10 minutes of stimulation with PDGF-BB (10 ng/ml), PDGF-AA (10 ng/ml), EGF (100 ng/ml) and VEGF (50 ng/ml). Cell lysates are run on SDS-PAGE gels, then transferred to nitrocellulose and Western blotted with anti-phosphotyrosine (4G 10) or anti-phosphorylated Erk1/Erk2 (New England Biolabs).
A novel series of protein surface binding agents are prepared that bind PDGF and disrupt its signaling function. The molecules are composed of a central calix[4] arene scaffold to which is attached four peptide loop domains (FIG. 1). The peptide loop component is based on a cyclic hexapeptide in which two residues are replaced by a 3-aminomethylbenzoate dipeptide mimetic containing a 5-amino substituent for attachment to the scaffold. The resulting molecules (as shown in Table 1) contain a functionalized and variable surface approximately 500 Å^2 in area. Several peptide loop sequences are synthesized (Table 1) to provide molecular surfaces with negatively and positively charged as well as hydrophobic regions designed to bind to complementary areas on the target growth factor. To identify PDGF binding molecules from this library, a cell-based screening assay is developed with NIH 3T3 cells to detect molecules capable of blocking PDGF-BB-induced tyrosine autophosphorylation of the PDGF receptor. The ability of the identified molecules to bind PDGF-BB and inhibit interaction with its receptor is then confirmed biochemically. Starved NIH 3T3 cells are pretreated for 5 min with the synthetic molecules prior to stimulation with PDGF for 10 min. The effects of the molecules on PDGF-stimulated receptor tyrosine phosphorylation are determined by the antiphosphotyrosine Western blotting as described in Table 1. […] GFB-111 has four-fold symmetry containing 4 identical peptide loops with negative and hydrophobic residues, GlyAspGlyTyr (GDGY) (SEQ ID NO. 6), that are designed to be complementary to the PDGF surface involved in binding to PDGFR. The area of PDGF-BB that binds PDGFR is composed primarily of positive and hydrophobic residues.
Starved NIH 3T3 cells are pretreated with the various GFBs (0-100 μM) for 5 min. prior to stimulation with PDGF (10 ng/ml) for 10 min. The cells are then harvested lysed and the proteins from the lysates are separated by SDS-PAGE and immunoblotted with an anti-phosphotyrosine antibody (4G10, Upstate Biotechnology, Lake Placid, N.Y.). The phosphotyrosine PDGF receptor bands are scanned and the concentrations of GFBs that inhibit the ability of PDGF to stimulate PDGFR tyrosine phosphorylation by 50% are determined. Data for each compound is representative of at least two independent experiments. FIG. 1 illustrates the structure of growth factor binders. GFBs are synthesized as described by Park, H. D. et al., Protein surface recognition by synthetic receptors: A route to novel sub-micromolar inhibitors for chymotrypsin. J. Am. Chem. Soc. 121, 8-13 (1999); and Hamuro, Y. et al., A calixarene with four peptide loops: An antibody mimic for recognition of protein surfaces. Angew. Chemie Int. Ed. Engl. 36, 2680-2683 (1997), each herein incorporated by reference in its respective entirety.

[2] = system: IGF-1 stimulated MAP kinase activation; assay: Inhibition of IGF-1 stimulated MAP kinase (p42/p44) activation in IGFR/3T3 cells; conditions: 100 μM; IGFR/3T3, IGF-1 stimulated
Experimental: (§2) In other experiments, starved NIH 3T3 cells (PDGF-AA, PDGF-BB, aFGF, bFGF), NIH 3T3 cells overexpressing EGFR. IGF-1R or Flk-1 and the human breast carcinoma SkBr3 that overexpresses ErbB2 (HRGβ) are pretreated with GFB-111 (100 μM) for 5 min before 10 min stimulation with the indicated growth factors at the concentrations shown above and aFGF (10 ng/ml), bFGF (50 ng/ml), IGF-1 (50 ng/ml) and HRGβ (10 ng/ml). Cell lysates are then immunoblotted with anti-phospho Erk1/Erk2 as described above.
(§3) The ability of the GFB library to block the ability of IGF-1 to stimulate the IFG-1 R tyrosine phosphorylation and MAP kinase activation is evaluated using the cell assay described above with IGF-1R/3T3 cells as target cell. […] A preferred embodiment of the invention is a compound that binds to an insulin-like growth factor-1, of the general structure III, wherein R is n-butyl, n-propyl, or benzyl, and X1, X2, X3, and X4 optionally comprise identical cyclic peptide loops of the general structure II, and wherein R1, R2, R3, and R4 are each amino acid side chains that define a tetrapeptide sequence, wherein said tetrapeptide is covalently attached at the amino and carboxy termini of said tetrapeptide to a 3-aminomethyl-5-aminobenzamide linking group.

[3] = system: PDGF-stimulated Erk1/Erk2 activation; assay: Inhibition of PDGF-stimulated activation of MAPK Erk1/Erk2 (p44/p42) in NIH 3T3 cells; conditions: NIH 3T3, PDGF stimulated
Experimental: as §1, §2

[4] = system: VEGF-stimulated Flk-1 tyrosine phosphorylation; assay: Inhibition of VEGF-stimulated Flk-1 tyrosine phosphorylation in Flk-1/3T3 cells; conditions: Flk-1/3T3, VEGF stimulated; read-out: (IC50) Inhibition Flk-1-Y-P
Experimental: as §1
(§4) In order to identify molecules that would bind vascular endothelial growth factor (VEGF), Flk-1/3T3 cell-based assay is used that relies on VEGF-stimulation of its receptor, Flk-1, tyrosine phosphorylation and subsequent MAP-kinase activation. The assay used herein identical to that used for PDGF, except that NIH 3T3 cells that overexpress Flk-1 are used. GFB-116, which has four identical loops with the sequence GKGK (SEQ ID NO. 10) is shown to be very potent and selective toward blocking the ability of VEGF to stimulate Flk-1 tyrosine phosphorylation and subsequent MAP-kinase activation as measured by phospho erk-1 and erk-2 also referred to in the Table as p42 and p44 (Table 4A). A preferred embodiment of the invention is a compound that binds to a vascular endothelial growth factor, of the general structure III (above) in which R is n-butyl, n-propyl, or benzyl, and X comprise covalently attached identical cyclic peptide loops wherein R1, R2, R3, and R4 are each amino acid side chains, as broadly defined above, that define a tetrapeptide sequence, wherein said tetrapeptide is covalently attached at the amino and carboxy termini of said tetrapeptide to 3-aminomethyl-5-aminobenzamide linking group, and wherein said tetrapeptide sequence is GKGK (SEQ ID NO. 10), GDGY (SEQ ID NO. 6), or functionally related derivatives thereof.

[5] = system: VEGF-stimulated MAP kinase activation; assay: Inhibition of VEGF-stimulated MAP kinase (p42/p44, Erk2/Erk1) activation in Flk-1/3T3 cells; conditions: Flk-1/3T3, VEGF stimulated
Experimental: as §1, §2, §4

[6] = system: IGF-1 stimulated IGF-1R tyrosine phosphorylation; assay: Inhibition of IGF-1 stimulated IGFR tyrosine phosphorylation in IGFR/3T3 cells; conditions: 100 μM; IGFR/3T3, IGF-1 stimulated
Experimental: as §3

[7] = head p42/Erk2 (p42 for GFB-132 to 137), read-out: (IC50) Inhibition p42/Erk2
[8] = read-out: (IC50) Inhibition p42
[9] = read-out: (IC50) Inhibition p44

| IC50 [1] [nM] | IC50 [3, 7] [µM] | IC50 [4] [µM] | IC50 [5, 8] [µM] | IC50 [5, 9] [µM] | IC50 [3, 9] [µM] | Substance | % Inhibition at 100 μM p42 [2] [%] | % Inhibition at 100 μM p44 [2] | % Inhibition at 100 μM IGF1R-Y-P [6] |
| --- | --- | --- | --- | --- | --- | --- | --- | --- | --- |
| 9000 | 57 | 10 | 50 | 50 |  | But-Calix scaffold with peptide loops 4-d-ADGD, (D-Ala)-Asp-Gly-Asp (SEQ ID NO. 3) ([dA]DGD; linker N-C via 3‑aminomethyl‑5‑aminobenzamide; also: peptide loops (4) attached to But-Calix scaffold) [GFB-108] | 67.8 | 80.1% |  |
| 1700 | 7 |  |  |  |  | GDAD [GFB-110] |  | 55.4% and 47.1% | 40.9% and 32.4% |
|  |  |  |  |  |  | GDDD [GFB-129] | 2.8 | 33.4% | 3.4% |
| 3000 | 25 |  |  |  | 24 | GDDD [GFB-136] | 15.0 |  | 40.6% |
| 1300 | 1.7 |  |  |  |  | GDDG [GFB-120] | 68.1 | 85.9% | 35.4% |
| > 50000 | > 50 |  |  |  |  | GDDG [GFB-123] | 26.7 | 62.4% | 24.2% |
|  |  |  |  |  |  | GDDG [GFB-131] | −6.2 | 20.0% | 30.2% |
| 1700 | 19 |  |  |  |  | GDDY [GFB-122] | 33.6 | 66.6% | 38.4% |
|  |  |  |  |  |  | GDDY [GFB-130] | −19.7 | −17.5% | 22.7% |
| > 500000 |  |  | > 100 | > 100 |  | GDFD [GFB-102] |  |  |  |
| > 500000 | > 500 |  |  |  |  | GDGD [GFB-103] |  |  |  |
| > 500000 | > 500 |  |  |  |  | GDGD [GFB-104] | −0.19 | 22.4% | −28.4% |
| 2500 | 10 | < 10 |  |  |  | GDGD [GFB-107] | 57.3 | 59.7% |  |
| 26000 | > 50 |  |  |  |  | GDGY [GFB-128] | −6.1 | 38.2% | −12.0% |
| 400 | 2.9 |  |  |  | 3 | GDGY [GFB-132] | 11.0 | 39.4% | 30.2% |
| 1900 | 2.5 |  |  |  | 2.6 | GDGY [GFB-134] | 4.9 | 53.5% | 16.8% |
| 1900 | 3.2 |  |  |  | 24 | GDGY [GFB-135] | 0.8 | 46.1% | 16.2% |
| 400 | 2.9 |  |  |  | 47 | GDGY [GFB-137] | 5.9 | 38.2% | 36.0% |
| 7500 | 15 |  |  |  |  | GDLD [GFB-109] | 68.3 | 79.7% |  |
| 5800 | 36 |  |  |  |  | GDND [GFB-117] | 17.1 | 61.5% | 4.9% |
| 700 | 1.2 |  |  |  |  | GFB-118: But-Calix scaffold with peptide loops 4-D-2-NalDGD (SEQ ID NO. 17) ([d2Nal]DGD; linker N-C via 3‑aminomethyl‑5‑aminobenzamide; also: four loops attached to But-Calix scaffold) | 16.4 | 55.2% | 1.5% |
| 5600 | 8.5 |  |  |  |  | GFB-121: But-Calix scaffold with peptide loops 4-D-AbuDGD (SEQ ID NO. 18) ([dAbu]DGD; linker N-C via 3‑aminomethyl‑5‑aminobenzamide; also: four loops attached to But-Calix scaffold) | 28.3 | 62.1% | 33.8% |
| > 500000 | > 500 | > 100 | > 100 | > 100 |  | GFGD [GFB-101] |  |  |  |
| > 50000 | > 50 |  |  |  |  | GKGF [GFB-115] | −12.4 | 51.9% | −38.3% |
| 20000 | 32 |  |  |  |  | PDGD [GFB-119] | 29.7 | 66.2% | 16.7% |
